Patent US20080200405A1, “Drug Resistance Reversal In Neoplastic Disease” (priority 2007, published 2008)
Structures can show the parent of a compound that is named as a salt.

Columns and labels:
TNFα = assay: Measurement of LPS Induced-TNFα in THP-1 Cells; assay type: cell-based, human; conditions: Homo sapiens, THP-1; read-out: TNFalpha IC50
Protocol: The lipid peroxidation assay method of Ohkawa, H.; Ohishi, N.; Yaki, K. Anal. Biochem. 1979, 95, 351 was used to evaluate […]. […] […] Cells were collected and spun at 1500 g for 10 minutes. Supernatant was collected and analyzed for TNFα.
Mean Percent Inhibition of TNF-alpha by compounds of the present invention is set forth in Table B. TNF-alpha inhibition data is set forth in Table B-1. OT-551 was used in both native form and in the form of nanoparticles. […] Other nitrogenous heterocyclic species of the invention are expected to show similar improvement in efficacy when disposed in nanoparticulate form.

[1] = system: Doxorubicin resistant SaOS2 cells; assay: Cancer cell viability (MTT) in the presence or absence of doxorubicin; assay type: cell-based, human; conditions: compound 50 ug/mL, 3 days

Row | SMILES | melting point | IC50 (TNFα) | Mean OD (×10^−3), MTT viability ([1]; Dox. 10^−6 M (+)) | Mean OD (×10^−3), MTT viability ([1]; absence of Dox. (−))
1 | CC1(C)CC(Oc2nsnc2C(=O)O)CC(C)(C)N1O.Cl | 209.1 °C (dec.) | – | – | –
2 | CC1(C)CC(Oc2nsnc2N2CCN(C(=O)c3ccco3)CC2)CC(C)(C)N1O.Cl | 198.1 °C (dec.) | – | – | –
3 | CC1(C)CC(Oc2nc3ccccc3s2)CC(C)(C)N1O.Cl | 160 °C (dec.) | – | – | –
4 | CC1(C)C=C(COc2ccccc2N2CCOCC2)C(C)(C)N1O.Cl | 155.7 °C (dec.) | – | – | –
5 | Cc1c(C)c2c(c(C)c1O)CCC(C)(C(=O)NC1CC(C)(C)N(O)C(C)(C)C1)O2.Cl (centres unmarked) | 174.9 °C (dec.) | – | – | –
6 | COc1cc2c(cc1OC)CN(c1nsnc1OC1CC(C)(C)N(O)C(C)(C)C1)CC2.Cl | 166.9 °C (dec.) | – | – | –
7 | CC1(C)CC(Nc2nc3ccccc3s2)CC(C)(C)N1O.Cl | 183 °C (dec.) | – | – | –
8 | COc1ccc2nc(NC3CC(C)(C)N(O)C(C)(C)C3)sc2c1.Cl | 220 °C (dec.) | – | – | –
9 | CC1(C)c2ccc(Br)cc2C(C)(C)N1O.Cl | 214.1 °C | – | – | –
10 | CC(C)(C)OC(=O)c1nsnc1OC1CC(C)(C)N(O)C(C)(C)C1.Cl | 197 °C (dec.) | – | – | –
11 | CC1(C)C=C(CO)C(C)(C)N1O (as salt: chloride) [Compound 8, 2,5-dihydro-2,2,5,5-tetramethyl-1-hydroxyl-1H-pyrrol-3-yl)methanol hydrogen chloride] | 141.9 °C (dec.) | – | – | –
12 | CC1(C)CC(Oc2nsnc2OC2CC(C)(C)N(O)C(C)(C)C2)CC(C)(C)N1O (as salt: chloride) [Compound 14, 1-hydroxyl-4-(4-(2,2,6,6-tetramethylpiperidin-1-hydroxyl-4-yloxy)-1,2,5-thiadiazol-3-yloxy)-2,2,6,6-tetramethylpiperidine bis-hydrogen chloride] | 216.2 °C (dec.) | – | – | –
13 | CC1(C)CC(Oc2nsnc2C#N)CC(C)(C)N1O (as salt: hydrochloride) [Compound 45] | 179.2 °C (dec.) | – | – | –
14 | CC1(C)CC(O)C(C)(C)N1O (centres unmarked) (as salt: salt) [Compound 7, 2,2,5,5-Tetramethyl-pyrrolidine-1,3-diol] | 155.5 °C (dec.) | – | – | –
15 | CC1(C)CC(NS(C)(=O)=O)CC(C)(C)N1O (as salt: salt) [Compound 10, 1-hydroxy-4-methanesulfonamido-2,2,6,6-tetramethylpiperidine] | 178.3 °C (dec.) | – | – | –
16 | CC1(C)C=C(CO)CC(C)(C)N1O.Cl [Compound 25, 1-hydroxy-1,2,3,6-tetrahydro-2,2,6,6-tetramethylpyridin-4-yl)methanol hydrogen chloride] | – | 30.9 µM | – | –
17 | CC1(C)CC(NC(=O)CCN2CCOCC2)CC(C)(C)N1O.Cl [Compound 26, N-(1-hydroxy-2,2,6,6-tetramethylpiperidin-4-yl)-3-morpholinopropanamide hydrogen chloride] | – | ≥ 100 µM | 261.50 ×10^−3 | 1056.33 ×10^−3

Row | SMILES | melting point | IC50 (TNFα) | Mean OD (×10^−3), MTT viability ([1]; Dox. 10^−6 M (+)) | Mean OD (×10^−3), MTT viability ([1]; absence of Dox. (−))
18 | CC1(C)CC(c2nn[nH]n2)CC(C)(C)N1O.Cl [Compound 30, 1-hydroxy-2,2,6,6-tetramethyl-4-(2H-tetrazol-5-yl)piperidine hydrogen chloride] | – | ≥ 100 µM | 310.00 ×10^−3 | 1301.25 ×10^−3
19 | CC1(C)CC(NC(=O)C2CC2)CC(C)(C)N1O.Cl [Compound 31, N-(1-hydroxy-2,2,6,6-tetramethylpiperidin-4-yl)cyclopropanecarboxamide hydrogen chloride] | – | 38.2 µM | 322.25 ×10^−3 | 1175.25 ×10^−3
20 | CC1(C)CC(Oc2nsnc2N2CCOCC2)C(C)(C)N1O.Cl (centres unmarked) [Compound 32, 4-(4-(1-hydroxy-2,2,5,5-tetramethylpyrrolidin-3-yloxy)-1,2,5-thiadiazol-3-yl)morpholine hydrogen chloride] | – | ≥ 100 µM | 231.50 ×10^−3 | 985.67 ×10^−3
21 | CC1(C)CC(CO)C(C)(C)N1O.Cl (centres unmarked) [Compound 33, 1-hydroxy-2,2,5,5-tetramethylpyrrolidin-3-yl)methanol hydrogen chloride] | – | 55.7 µM | – | –
22 | CC1(C)CC(CO)CC(C)(C)N1O.Cl [Compound 34, (1-hydroxy-2,2,6,6-tetramethylpiperidin-4-yl)methanol hydrogen chloride] | – | 2.4 µM | 302.75 ×10^−3 | 1168.25 ×10^−3
23 | CC1(C)C=C(CC2CNCCO2)C(C)(C)N1O.Cl.Cl (centres unmarked) [Compound 36, ((1-hydroxy-2,5-dihydro-2,2,5,5-tetramethyl-1H-pyrrol-3-yl)methyl)morpholine bis-hydrogen chloride] | – | 4 µM | 297.00 ×10^−3 | 1110.75 ×10^−3
24 | CC1(C)CC(=O)C(C)(C)N1O.Cl [Compound 37, 1-hydroxy-2,2,5,5-tetramethylpyrrolidin-3-one hydrogen chloride] | – | ≥ 100 µM | 366.25 ×10^−3 | 1329.75 ×10^−3
25 | COc1cc(COC2CC(C)(C)N(O)C(C)(C)C2)cc(OC)c1OC.Cl [Compound 48, 1-Hydroxyl-4-(3,4,5-trimethoxybenzyloxy)-2,2,6,6-tetramethylpiperidine hydrochloride] | – | – | 50.67 ×10^−3 | 1118.00 ×10^−3
26 | COc1cc(C2=CC(C)(C)N(O)C(C)(C)C2)cc(OC)c1OC.Cl [Compound 50, 1-Hydroxy-2,3,6-trihydro-4-(3,4,5-trimethoxyphenyl)-2,2,6,6-tetramethylpiperidine hydrochloride] | – | – | 54.50 ×10^−3 | 1226.33 ×10^−3
27 | CN1CCN(c2nsnc2OC2CC(C)(C)N(O)C(C)(C)C2)CC1.Cl.Cl [Compound 52, dihydrochloride] | – | 3 µM | – | –
28 | CN1CCN(c2nsnc2OC2CC(C)(C)N(O)C(C)(C)C2)CC1.Cl.Cl [Compound 52] | – | – | 195.00 ×10^−3 | 1186.33 ×10^−3
29 | CC1(C)CC(Oc2nsnc2N2CCN(c3ccccc3)CC2)CC(C)(C)N1O.Cl.Cl [Compound 53, 4-(4-phenylpiperazin-1-yl)-3-[(2,2,6,6-tetramethyl-1-hydroxypiperidinyl)-4-oxy]-1,2,5-thiadiazole hydrochloride] | – | – | 170.00 ×10^−3 | 1333.75 ×10^−3
30 | CC1(C)CC(=CC(=O)N2CCN(c3ccccc3)CC2)CC(C)(C)N1O [Compound 56, hydrochloride] | – | 12 µM | 308.75 ×10^−3 | 1153.00 ×10^−3
31 | CC1(C)C(CO)=C(c2ccc(F)cc2)C(C)(C)N1O.Cl [Compound 59, (4-(4-fluorophenyl)-1-hydroxy-2,5-dihydro-2,2,5,5-tetramethyl-1H-pyrrol-3-yl)methanol hydrochloride] | – | – | 352.00 ×10^−3 | 1105.00 ×10^−3
32 | CC1(C)C=C(c2ccc(F)cc2)CC(C)(C)N1O [Compound 62, hydrochloride] | – | ≥ 100 µM | 40.25 ×10^−3 | 184.75 ×10^−3
33 | CC1(C)c2ccc(N3CCOCC3)cc2C(C)(C)N1O [Compound 66, 2-hydroxy-1,1,3,3-tetramethyl-5-morpholinoisoindoline hydrochloride] | – | ≥ 100 µM | – | –
